Measured values: patent US20230181678A1, “NOVEL ANTIBACTERIAL PEPTIDE OR PEPTIDE ANALOG AND USE THEREOF” (CAMP THERAPEUTICS INC., priority 2020, published 2023)
Square brackets hold non-standard residues; d marks the D form. * marks the point of attachment. Octanoyl = CCCCCCCC(=O)*; Dab = NCC[C@H](N)C(=O)O; Hexanoyl = CCCCCC(=O)*

Columns and labels:
[1] = test system: outer membrane of E. coli NDM-1; assay: Enzyme assay, outer membrane leakage (β-lactamase release, CENTA); format: cell-based; conditions: peptide 0.63 or 1.30 uM, 37° C., 1 h; 200 μM CENTA
Method: (§1) It was observed, through an enzyme assay, whether the sensitizing peptide destroyed the outer and inner membranes of Gram-negative bacteria. In the presence of the sensitizing peptide, it was observed whether in a case where 1.5 mM ONPG was used together therewith, β-galactosidase was released from E. coli ATCC 25922 for the inner membrane, and whether in a case where 200 μM CENTA was used together therewith, β-lactamase was released from E. coli NDM-1 for the outer membrane.
Specifically, to determine leakage of the outer membrane, activity of the β-lactamase released from the outer membrane was evaluated. New Delhi metallo-β-lactamase-1 (NDm-1)-producing E. coli cells were washed three times with DPBS and suspended in the same buffer. The cells were diluted to an OD600 of 0.2 and treated with the peptide at a concentration of 0.63 or 1.30 uM at 37° C. for 1 h. After centrifugation, the supernatant was incubated with 200 μM CENTATM β-lactamase substrate at 37° C. for 1 hour. An optical density was obtained by measuring absorbance of a product of enzyme reaction at 405 nm using a microplate reader (Molecular Devices Co., Menlo Park, Calif.).
The results are illustrated in FIGS. 12A and 12B. The y-axis is absorbance measured at 405 nm, and higher absorbance is observed as a higher amount of β-lactamase is released due to destruction of the membrane.

[2] = test system: inner membrane of E. coli ATCC 25922; assay: Enzyme assay, inner membrane leakage (β-galactosidase release, ONPG); format: cell-based; conditions: 1.5 mM ONPG
Method: as §1
To determine leakage of the inner membrane, release of the cytoplasmic enzyme β-galactosidase was evaluated. The bacteria were diluted to OD600=1 and 1.5 mM ONPG (O-nitrophenyl-β-D-galactopyranoside) was added. Absorbance of a product of enzyme reaction was measured at 420 nm. The other procedures were carried out in the same manner as in the experiment for outer membrane destruction.

[3] = test system: Acinetobacter baumannii ATCC 17978; assay: MIC assay, sensitizing effect of peptide on antibiotics; format: cell-based
K.p. ATCC 700603 = assay: MIC assay, sensitizing effect of peptide on rifampicin; format: cell-based, Klebsiella pneumoniae; conditions: FIG. 9C, peptide 4 ug/ml
Method: (§2) All MIC assay experiments were performed using the Clinical and Laboratory Standards Institute (CLSI) guidelines (Clinical & Laboratory Standards Institute: CLSI Guidelines, 2017). Bacterial cells cultured overnight were diluted to 0.05 McFarland standard using McFarland (KIT […] PLUS INSTRUMENT, Biomerieux) in Muller Hinton II Broth (cation-adjusted) (Difco). The cells were inoculated at 1.5×10^5 CFU per 200 μL solution of each well in a 96-well plate. The peptide and the antibiotic were prepared using 2-fold serially diluted concentrations. […] Incubation was performed at 37° C. for 18 hours, and then absorbance was measured at 600 nm using an EPOCH2 microplate reader (BioTek, Winooski, USA) to calculate a MIC value. The MIC value was defined as a concentration of the antibiotic or peptide at which bacterial growth was inhibited to a level of lower than 10% growth of the positive control. Fold reduction was calculated using the following expression.
(§3) ATCC 25922, A.b. ATCC 17978, K.p. ATCC 700603, and P.a. ATCC 27853, or CRE (E.c. NDM-1, K.p. NDM-1, or K.p. KPC) (FIGS. 9 and 10).

P.a. ATCC 27853 = assay: MIC assay, sensitizing effect of peptide on rifampicin or colistin; format: cell-based, Pseudomonas aeruginosa; conditions: peptide 4 ug/ml
Method: as §2, §3

Ec NDM-1 = assay: MIC assay, sensitizing effect of peptide on rifampicin (CRE); format: cell-based, E. coli; conditions: FIG. 9E; Ec NDM-1 (CRE); peptide 4 ug/ml
Method: as §2, §3

E. coli NDM-1 = assay: Neutropenic mouse thigh infection model; format: in vivo
[4] = test system: E.c. ATCC 25922, A.b. ATCC 17978, K.p. ATCC 700603, P.a. ATCC 27853, or CRE (E.c. NDM-1, K.p. NDM-1, or K.p. KPC); assay: MIC assay, comparison with L9P on rifampicin or colistin; format: cell-based; conditions: FIGS. 9 and 10
Method: as §2, §3

E. coli ATCC 25922 = assay: MIC assay, sensitizing effect of peptide on antibacterial agents; format: cell-based
Method: as §2
(§4) Fold reduction=MIC of antibiotic alone/MIC of antibiotic in presence of sensitizing peptide
Using the same MIC assay method as in Example 1, sensitizing effects of the peptide L9P (CMP1107, 1 ug/ml), which is known as a conventional sensitive AMP, and CMP1401 (1 ug/ml) were compared on existing antibacterial agents against E. coli ATCC 25922 (FIG. 5A).
In addition, MIC screening was used to compare sensitizing effects of the competitive drug SPR741 and the peptide CMP1401 or CMP1501 on the existing antibacterial agents against E. coli ATCC 25922 (FIGS. 5B and 5C). SPR741, which is a previously known polymyxin B (PMB) analog, is a sensitive AMP, and is a drug that has been identified through preclinical experiments to be effective against Gram-negative bacteria in a case of being used together with existing Gram-positive antibiotics.
as §3

[5] = test system: E. cloacae clinical strains; assay: MIC50 and MIC90 in clinical strains with CMP1709 (colistin); format: cell-based; conditions: CMP1709 4 ug/ml with colistin vs colistin alone; results not shown
Source text: (§5) The selected clinical strains E. coli, K. pneumoniae, E. cloacae, C. freundii, and S. marcescens were all carbapenem-resistant strains, and the selected clinical strain P. aeruginosa included 43 strains of imipenem- and meropenem-resistant strains, and 60 strains of imipenem- and meropenem-sensitive strains.
(§6) The results are illustrated in FIG. 11 (results not shown for colistin). The “Fold reduction of MIC90” in FIG. 11 indicates a MIC90 value observed in a case where the antibacterial agent was used in combination with CMP1709 as compared with a case where the antibacterial agent was used alone.

E. coli clinical strains = assay: as above; format: cell-based; conditions: CMP1709 4 ug/ml with colistin vs colistin alone; results not shown
Source text: as §5, §6

Kp NDM-1 = assay: MIC assay, sensitizing effect of peptide on rifampicin (CRE); format: cell-based, Klebsiella pneumoniae; conditions: FIG. 9F; Kp NDM-1 (CRE); peptide 4 ug/ml
Method: as §2, §3

K.p. KPC = assay: MIC assay, sensitizing effect of peptide on rifampicin or colistin (CRE); format: cell-based, Klebsiella pneumoniae; conditions: peptide 4 ug/ml
Method: as §2, §3

[6] = test system: Acinetobacter baumannii ATCC 17978; assay: MIC assay, sensitizing effect of peptide on antibiotics; format: cell-based; conditions: for sensitizing ability to erythromycin and novobiocin: recap of Example 1; for MIC reduction effect (fold reduction) of erythromycin: peptide 0.4 uM with erythromycin vs erythromycin alone
Method: Each peptide at a concentration of 0.4 uM was used together with the two gram-positive antibiotics erythromycin and novobiocin to identify their effect on Acinetobacter baumannii ATCC 17978 (MIC assay). Acinetobacter baumannii, which is Gram-negative bacteria commonly classified as an opportunistic pathogen, is a human-infecting bacterium with a high probability of nosocomial infection because it has broad-spectrum antibacterial resistance and is able to survive for a long time even in a low-humidity environment. For each of the gram-positive antibiotics, as compared with MIC of each antibiotic in a case of being used alone, fold reduction of MIC of each antibiotic was measured in a case where each antibiotic was used together with each peptide.
All MIC assay experiments were performed using the Clinical and Laboratory Standards Institute (CLSI) guidelines (Clinical & Laboratory Standards Institute: CLSI Guidelines, 2017). […] The cells were inoculated at 1.5×10^5 CFU per 200 μL solution of each well in a 96-well plate. The peptide and the antibiotic were prepared using 2-fold serially diluted concentrations. […] Incubation was performed at 37° C. for 18 hours, and then absorbance was measured at 600 nm using an EPOCH2 microplate reader (BioTek, Winooski, USA) to calculate a MIC value. […] Fold reduction was calculated using the following expression.
as §4
The same MIC assay method as in Example 3 was used.
as §3

Gram-negative bacteria = conditions: cited from earlier work
host cells = conditions: cited from earlier work

OctA-KKLLKLLKKPLKLLK-NH2 (Octanoyl-KKLLKLLKKPLKLLK-NH2; SMILES CCCCCCCC(=O)N[C@@H](CCCCN)C(=O)N[C@@H](CCCCN)C(=O)N[C@@H](CC(C)C)C(=O)N[C@@H](CC(C)C)C(=O)N[C@@H](CCCCN)C(=O)N[C@@H](CC(C)C)C(=O)N[C@@H](CC(C)C)C(=O)N[C@@H](CCCCN)C(=O)N[C@@H](CCCCN)C(=O)N1CCC[C@H]1C(=O)N[C@@H](CC(C)C)C(=O)N[C@@H](CCCCN)C(=O)N[C@@H](CC(C)C)C(=O)N[C@@H](CC(C)C)C(=O)N[C@@H](CCCCN)C(N)=O) [CMP1407]
destruction of outer membrane (β-lactamase release) [1]: did not destroy these membranes
destruction of inner membrane (β-galactosidase release) [2]: did not destroy these membranes

HexA-KKALKLAKKPLKLLK-NH2 (Hexanoyl-KKALKLAKKPLKLLK-NH2) [CMP1406]
sensitizing effect for fusidic acid ([3]; peptide 0.31 μM, vs fusidic acid alone): 32 times
sensitizing effect for novobiocin ([3]; peptide 0.31 μM, vs novobiocin alone): 8 times
sensitizing effect for rifampicin ([3]; peptide 0.31 μM, vs rifampicin alone): 8 times

OctA-DabDabAFDabVADabDabPLSLLDab-NH2 (Octanoyl-[Dab][Dab]AF[Dab]VA[Dab][Dab]PLSLL[Dab]-NH2; SMILES CCCCCCCC(=O)N[C@@H](CCN)C(=O)N[C@@H](CCN)C(=O)N[C@@H](C)C(=O)N[C@@H](Cc1ccccc1)C(=O)N[C@@H](CCN)C(=O)N[C@H](C(=O)N[C@@H](C)C(=O)N[C@@H](CCN)C(=O)N[C@@H](CCN)C(=O)N1CCC[C@H]1C(=O)N[C@@H](CC(C)C)C(=O)N[C@@H](CO)C(=O)N[C@@H](CC(C)C)C(=O)N[C@@H](CC(C)C)C(=O)N[C@@H](CCN)C(N)=O)C(C)C) [CMP1709]
Decreased MIC value of rifampicin at peptide concentration of 4 ug/ml (K.p. ATCC 700603): 0.0078 µg/mL
Decreased MIC value of rifampicin at peptide concentration of 4 ug/ml (P.a. ATCC 27853; FIG. 9D): 0.25 µg/mL
Decreased MIC value of colisitin at peptide concentration of 4 ug/ml (P.a. ATCC 27853; FIG. 10B): 0.063 µg/mL
Decreased MIC value of rifampicin at peptide concentration of 4 ug/ml (Ec NDM-1): 0.0040 µg/mL
Decreased MIC value of rifampicin at peptide concentration of 4 ug/ml ([3]; FIG. 9B, A.b. ATCC 17978, peptide 4 ug/ml): 0.078 µg/mL
decrease in number of colonies compared with rifampicin alone (E. coli NDM-1; CMP1709 75 mg/kg in the presence of 20 mg/kg of rifampicin): 8.7 fold
number of colonies, peptide administered alone (E. coli NDM-1; CMP1709 alone): No changes were observed in the number of colonies
therapeutic efficacy of combination therapy with rifampicin (E. coli NDM-1; rifampicin and CMP1709): excellent therapeutic efficacy
sensitizing effect on rifampicin or colistin compared with L9P [4]: very good sensitizing effect
Decreased MIC value of rifampicin at peptide concentration of 4 ug/ml (E. coli ATCC 25922; FIG. 9A, E.c. ATCC 25922, peptide 4 ug/ml): 0.0020 µg/mL
Decreased MIC value of colisitin at peptide concentration of 4 ug/ml (E. coli ATCC 25922; FIG. 10A, E.c. ATCC 25922, peptide 4 ug/ml): 0.016 µg/mL
sensitizing effect with colistin [5]: two times
sensitizing effect with colistin (E. coli clinical strains): two times
Decreased MIC value of rifampicin at peptide concentration of 4 ug/ml (Kp NDM-1): 0.0078 µg/mL
Decreased MIC value of rifampicin at peptide concentration of 4 ug/ml (K.p. KPC; FIG. 9G): 0.0078 µg/mL
Decreased MIC value of colisitin at peptide concentration of 4 ug/ml (K.p. KPC; FIG. 10C): 0.50 µg/mL

Ac-AKLLKLLKKPLKLLK-NH2 [CMP1301]
sensitizing ability to erythromycin and novobiocin [6]: excellent sensitizing ability

Ac-KLLKLLKKPLKLLK-NH2 [CMP1107]
efficacy against E. coli (Gram-negative bacteria; Korean Patent No. 1811437): weak efficacy against E. coli
destruction of membranes of Gram-negative bacteria (known property) (Gram-negative bacteria; previously known sensitizing peptide): known to not destroy the membranes of Gram-negative bacteria
toxicity to host cells (host cells): low toxicity to host cells

Ac-KKLLKLAKKPLKLLK-NH2 [CMP1307]
MIC reduction effect (fold reduction) of erythromycin [6]: 8 times
sensitizing ability to erythromycin and novobiocin [6]: excellent sensitizing ability

Ac-KKLLKLLKKPLKLLK-NH2 [CMP1203]
MIC reduction effect (fold reduction) of erythromycin [6]: two times

OctA-DabDabALDabLADabDabPLDabLLDab-NH2 [CMP1501]
sensitizing effect on existing antibacterial agents compared with SPR741 (E. coli ATCC 25922; FIGS. 5B and 5C): almost the same or much better sensitizing effect
sensitizing effects on rifampicin and linezolid (E. coli ATCC 25922; peptide 0.5 ug/ml): excellent sensitizing effects
sensitizing effect compared with SPR741 at half its concentration (E. coli ATCC 25922; peptide concentration decreased by half as compared with SPR741, FIG. 5C): equal or superior effect

Ac-KKALKLLKKPLKLLK-NH2 [CMP1303]
MIC reduction effect (fold reduction) of erythromycin [6]: 8 times
